Measured values taken from ChEMBL document CHEMBL4507276 (2021).

Experiments:
[1] = target: Ribosomal protein S6 kinase alpha-5 (Homo sapiens) (UniProt O75582); conditions: Compound concentration 1000.0 nM
[2] = target: NT-3 growth factor receptor (Homo sapiens) (UniProt Q16288); conditions: Compound concentration 1000.0 nM
[3] = target: 5-hydroxytryptamine receptor 4 (Homo sapiens) (UniProt Q13639); assay: 5HT4EH_ANTAG Cerep selectivity data (BI); conditions: filed as antagonist, Compound concentration 20.0 uM
[4] = target: Sodium- and chloride-dependent GABA transporter 1 (Rattus norvegicus) (UniProt P23978); assay: GABATRANS/R Cerep selectivity data (BI); conditions: Compound concentration 20.0 uM
[5] = target: Glycine receptor subunit alpha-1 (Rattus norvegicus) (UniProt P07727); assay: GLYSTRYANTAG Cerep selectivity data (BI); conditions: filed as antagonist, Compound concentration 20.0 uM
[6] = target: Kappa-type opioid receptor (Rattus norvegicus) (UniProt P34975); assay: KAPPA/R Cerep selectivity data (BI); conditions: Compound concentration 20.0 uM
[7] = target: T1, Muscarinic acetylcholine receptor M2 (Homo sapiens) (UniProt P08172); assay: M2/H Cerep selectivity data (BI); conditions: filed as antagonist, Compound concentration 20.0 uM
T1 sequence (whole entry): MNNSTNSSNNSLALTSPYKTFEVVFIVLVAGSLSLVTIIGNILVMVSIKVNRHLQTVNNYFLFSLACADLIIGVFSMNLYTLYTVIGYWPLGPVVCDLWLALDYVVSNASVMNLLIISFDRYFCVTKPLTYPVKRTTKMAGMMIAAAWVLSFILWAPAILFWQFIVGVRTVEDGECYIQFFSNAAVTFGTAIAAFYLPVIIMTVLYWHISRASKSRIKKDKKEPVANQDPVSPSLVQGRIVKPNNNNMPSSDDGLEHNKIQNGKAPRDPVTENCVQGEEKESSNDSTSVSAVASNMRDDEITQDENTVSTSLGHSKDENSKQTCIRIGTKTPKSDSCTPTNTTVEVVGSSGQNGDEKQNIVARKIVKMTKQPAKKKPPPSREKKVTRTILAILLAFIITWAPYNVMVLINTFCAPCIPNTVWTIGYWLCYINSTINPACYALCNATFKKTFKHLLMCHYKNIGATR

[8] = target: Interstitial collagenase (Homo sapiens) (UniProt P03956); assay: MMP1 (H) Cerep selectivity data (BI); conditions: Compound concentration 20.0 uM
[9] = target: Vasoactive intestinal polypeptide receptor 1 (Homo sapiens) (UniProt P32241); assay: VIP1/VPAC1/H Cerep selectivity data (BI); conditions: Compound concentration 20.0 uM
[10] = target: Beta-1 adrenergic receptor (Homo sapiens) (UniProt P08588); assay: BETA1/HU Eurofins-Panlabs selectivity data (BI); conditions: Compound concentration 10.0 uM
[11] = target: Cysteinyl leukotriene receptor 1 (Homo sapiens) (UniProt Q9Y271); assay: CYSLT1_HS Eurofins-Panlabs selectivity data (BI); conditions: Compound concentration 10.0 uM
[12] = target: Sodium- and chloride-dependent GABA transporter 1 (Rattus norvegicus) (UniProt P23978); assay: GABATRANS/RA Eurofins-Panlabs selectivity data (BI); conditions: Compound concentration 10.0 uM
[13] = target: Interleukin-1 receptor type 1 (Mus musculus) (UniProt P13504); assay: IL-1 Eurofins-Panlabs selectivity data (BI); conditions: Compound concentration 10.0 uM
[14] = target: T2, Activin receptor type-1 (Homo sapiens) (UniProt Q04771); assay: ACVR1 Invitrogen selectivity data (BI); conditions: Compound concentration 3.0 uM
T2 sequence (whole entry): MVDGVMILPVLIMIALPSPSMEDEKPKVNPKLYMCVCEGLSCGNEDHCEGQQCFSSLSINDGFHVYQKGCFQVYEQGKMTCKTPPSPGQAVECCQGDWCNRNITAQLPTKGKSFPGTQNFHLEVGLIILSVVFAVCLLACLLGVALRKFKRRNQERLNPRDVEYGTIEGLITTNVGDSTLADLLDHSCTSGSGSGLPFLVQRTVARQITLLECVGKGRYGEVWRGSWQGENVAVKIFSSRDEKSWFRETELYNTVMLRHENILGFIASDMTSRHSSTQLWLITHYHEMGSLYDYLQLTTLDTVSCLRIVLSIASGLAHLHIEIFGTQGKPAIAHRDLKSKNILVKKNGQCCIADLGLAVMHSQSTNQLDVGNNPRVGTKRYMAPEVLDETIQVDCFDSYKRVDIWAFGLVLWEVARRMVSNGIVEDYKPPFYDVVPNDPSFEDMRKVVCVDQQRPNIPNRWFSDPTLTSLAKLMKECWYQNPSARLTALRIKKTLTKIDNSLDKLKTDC

[15] = target: Calcium/calmodulin-dependent protein kinase type 1 (Homo sapiens) (UniProt Q14012); assay: CAMK1_A Invitrogen selectivity data (BI); conditions: Compound concentration 3.0 uM
[16] = target: Calcium/calmodulin-dependent protein kinase type II subunit beta (Homo sapiens) (UniProt Q13554); assay: CAMK2B Invitrogen selectivity data (BI); conditions: Compound concentration 3.0 uM
[17] = target: Serine/threonine-protein kinase MRCK alpha (Homo sapiens) (UniProt Q5VT25); assay: CDC42 BPA Invitrogen selectivity data (BI); conditions: Compound concentration 3.0 uM
[18] = target: Casein kinase I isoform gamma-1 (Homo sapiens) (UniProt Q9HCP0); assay: CSNK1G1 Invitrogen selectivity data (BI); conditions: Compound concentration 3.0 uM
[19] = target: Fibroblast growth factor receptor 1 (Homo sapiens) (UniProt P11362); assay: FGFR1 Invitrogen selectivity data (BI); conditions: Compound concentration 3.0 uM
[20] = target: Glycogen synthase kinase-3 alpha (Homo sapiens) (UniProt P49840); assay: GSK3A Invitrogen selectivity data (BI); conditions: Compound concentration 3.0 uM
[21] = target: Insulin-like growth factor 1 receptor (Homo sapiens) (UniProt P08069); assay: IGF1R Invitrogen selectivity data (BI); conditions: Compound concentration 3.0 uM
[22] = target: Vascular endothelial growth factor receptor 2 (Homo sapiens) (UniProt P35968); assay: KDR Invitrogen selectivity data (BI); conditions: Compound concentration 3.0 uM
[23] = target: Serine/threonine-protein kinase Nek6 (Homo sapiens) (UniProt Q9HC98); assay: NEK6 Invitrogen selectivity data (BI); conditions: Compound concentration 3.0 uM
[24] = target: Serine/threonine-protein kinase PAK 5 (Homo sapiens) (UniProt Q9P286); assay: PAK7 Invitrogen selectivity data (BI); conditions: Compound concentration 3.0 uM
[25] = target: T3, cAMP-dependent protein kinase catalytic subunit PRKX (Homo sapiens) (UniProt P51817); assay: PRKX Invitrogen selectivity data (BI); conditions: Compound concentration 3.0 uM
T3 sequence (whole entry): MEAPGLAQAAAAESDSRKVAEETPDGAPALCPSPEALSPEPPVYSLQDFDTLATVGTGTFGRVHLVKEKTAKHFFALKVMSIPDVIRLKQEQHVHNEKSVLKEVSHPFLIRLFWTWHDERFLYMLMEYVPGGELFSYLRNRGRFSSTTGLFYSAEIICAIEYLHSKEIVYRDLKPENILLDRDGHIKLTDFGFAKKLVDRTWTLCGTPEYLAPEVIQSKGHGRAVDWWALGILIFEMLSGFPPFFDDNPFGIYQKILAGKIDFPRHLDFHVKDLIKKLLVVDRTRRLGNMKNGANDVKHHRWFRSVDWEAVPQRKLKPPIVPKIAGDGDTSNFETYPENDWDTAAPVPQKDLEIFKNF

[26] = tested on: Proto-oncogene tyrosine-protein kinase receptor Ret (Homo sapiens), P07949 [V804L]; assay: RET V804L Invitrogen selectivity data (BI); conditions: Compound concentration 3.0 uM
[27] = target: Ribosomal protein S6 kinase alpha-2 (Homo sapiens) (UniProt Q15349); assay: RPS6KA2 Invitrogen selectivity data (BI); conditions: Compound concentration 3.0 uM

Measured: residual activity

Chain of Serine/threonine-protein kinase MRCK alpha (Homo sapiens) (Q5VT25 whole entry, canonical isoform): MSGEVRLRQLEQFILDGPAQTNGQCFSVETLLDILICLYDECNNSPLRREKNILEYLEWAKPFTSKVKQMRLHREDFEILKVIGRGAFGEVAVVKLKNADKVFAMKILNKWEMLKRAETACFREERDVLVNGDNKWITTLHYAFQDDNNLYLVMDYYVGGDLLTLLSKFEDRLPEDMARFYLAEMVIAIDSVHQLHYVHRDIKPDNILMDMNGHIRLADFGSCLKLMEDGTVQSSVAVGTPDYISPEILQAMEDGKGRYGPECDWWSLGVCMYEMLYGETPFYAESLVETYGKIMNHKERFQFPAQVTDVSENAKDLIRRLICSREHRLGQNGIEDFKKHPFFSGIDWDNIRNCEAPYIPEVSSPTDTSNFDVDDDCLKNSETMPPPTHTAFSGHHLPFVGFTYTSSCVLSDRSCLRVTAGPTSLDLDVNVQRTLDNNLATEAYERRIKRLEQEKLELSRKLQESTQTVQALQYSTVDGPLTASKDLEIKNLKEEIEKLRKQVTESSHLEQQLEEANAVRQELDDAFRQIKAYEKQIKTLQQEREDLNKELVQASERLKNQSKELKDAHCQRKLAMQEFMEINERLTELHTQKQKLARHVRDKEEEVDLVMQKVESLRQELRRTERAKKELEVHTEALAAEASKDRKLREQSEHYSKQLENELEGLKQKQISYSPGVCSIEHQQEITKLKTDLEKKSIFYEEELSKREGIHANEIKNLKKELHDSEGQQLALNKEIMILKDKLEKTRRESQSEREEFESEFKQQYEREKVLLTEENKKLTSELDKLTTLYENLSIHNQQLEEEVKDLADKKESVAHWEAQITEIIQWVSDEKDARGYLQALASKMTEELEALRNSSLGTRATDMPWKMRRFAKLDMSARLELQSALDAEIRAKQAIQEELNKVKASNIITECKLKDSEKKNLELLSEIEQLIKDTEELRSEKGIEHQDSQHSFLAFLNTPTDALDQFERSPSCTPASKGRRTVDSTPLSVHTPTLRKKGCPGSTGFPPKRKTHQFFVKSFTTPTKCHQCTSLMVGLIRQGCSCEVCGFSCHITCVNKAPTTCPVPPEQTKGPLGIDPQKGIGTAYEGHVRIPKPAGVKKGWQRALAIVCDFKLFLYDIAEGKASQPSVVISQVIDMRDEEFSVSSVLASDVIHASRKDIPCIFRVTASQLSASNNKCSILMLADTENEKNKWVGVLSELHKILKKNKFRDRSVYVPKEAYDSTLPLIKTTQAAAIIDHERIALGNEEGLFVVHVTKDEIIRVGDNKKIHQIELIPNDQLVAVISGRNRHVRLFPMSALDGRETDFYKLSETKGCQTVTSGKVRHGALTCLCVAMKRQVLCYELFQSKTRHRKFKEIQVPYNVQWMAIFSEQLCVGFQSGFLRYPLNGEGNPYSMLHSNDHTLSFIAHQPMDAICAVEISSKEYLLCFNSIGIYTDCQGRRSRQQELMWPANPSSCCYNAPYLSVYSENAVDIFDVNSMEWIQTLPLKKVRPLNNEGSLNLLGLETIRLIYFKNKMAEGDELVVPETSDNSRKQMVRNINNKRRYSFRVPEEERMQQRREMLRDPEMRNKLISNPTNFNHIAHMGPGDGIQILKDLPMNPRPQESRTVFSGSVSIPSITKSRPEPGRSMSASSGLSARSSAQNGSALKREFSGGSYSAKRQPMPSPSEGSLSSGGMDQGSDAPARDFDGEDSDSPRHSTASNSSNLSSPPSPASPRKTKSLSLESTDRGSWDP
Chain of Vasoactive intestinal polypeptide receptor 1 (Homo sapiens) (P32241 whole entry): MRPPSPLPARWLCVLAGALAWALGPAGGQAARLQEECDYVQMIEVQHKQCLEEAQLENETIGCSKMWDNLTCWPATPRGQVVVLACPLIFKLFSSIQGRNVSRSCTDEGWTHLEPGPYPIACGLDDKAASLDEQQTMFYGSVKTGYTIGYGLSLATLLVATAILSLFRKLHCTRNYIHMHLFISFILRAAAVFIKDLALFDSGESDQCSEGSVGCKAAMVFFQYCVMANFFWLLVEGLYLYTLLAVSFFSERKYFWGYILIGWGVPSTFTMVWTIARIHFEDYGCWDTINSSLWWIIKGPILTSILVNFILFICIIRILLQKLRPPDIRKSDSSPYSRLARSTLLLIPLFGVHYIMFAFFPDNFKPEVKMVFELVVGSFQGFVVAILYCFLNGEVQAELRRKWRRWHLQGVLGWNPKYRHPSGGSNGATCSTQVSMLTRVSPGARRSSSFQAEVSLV
Chain of Vascular endothelial growth factor receptor 2 (Homo sapiens) (P35968 whole entry): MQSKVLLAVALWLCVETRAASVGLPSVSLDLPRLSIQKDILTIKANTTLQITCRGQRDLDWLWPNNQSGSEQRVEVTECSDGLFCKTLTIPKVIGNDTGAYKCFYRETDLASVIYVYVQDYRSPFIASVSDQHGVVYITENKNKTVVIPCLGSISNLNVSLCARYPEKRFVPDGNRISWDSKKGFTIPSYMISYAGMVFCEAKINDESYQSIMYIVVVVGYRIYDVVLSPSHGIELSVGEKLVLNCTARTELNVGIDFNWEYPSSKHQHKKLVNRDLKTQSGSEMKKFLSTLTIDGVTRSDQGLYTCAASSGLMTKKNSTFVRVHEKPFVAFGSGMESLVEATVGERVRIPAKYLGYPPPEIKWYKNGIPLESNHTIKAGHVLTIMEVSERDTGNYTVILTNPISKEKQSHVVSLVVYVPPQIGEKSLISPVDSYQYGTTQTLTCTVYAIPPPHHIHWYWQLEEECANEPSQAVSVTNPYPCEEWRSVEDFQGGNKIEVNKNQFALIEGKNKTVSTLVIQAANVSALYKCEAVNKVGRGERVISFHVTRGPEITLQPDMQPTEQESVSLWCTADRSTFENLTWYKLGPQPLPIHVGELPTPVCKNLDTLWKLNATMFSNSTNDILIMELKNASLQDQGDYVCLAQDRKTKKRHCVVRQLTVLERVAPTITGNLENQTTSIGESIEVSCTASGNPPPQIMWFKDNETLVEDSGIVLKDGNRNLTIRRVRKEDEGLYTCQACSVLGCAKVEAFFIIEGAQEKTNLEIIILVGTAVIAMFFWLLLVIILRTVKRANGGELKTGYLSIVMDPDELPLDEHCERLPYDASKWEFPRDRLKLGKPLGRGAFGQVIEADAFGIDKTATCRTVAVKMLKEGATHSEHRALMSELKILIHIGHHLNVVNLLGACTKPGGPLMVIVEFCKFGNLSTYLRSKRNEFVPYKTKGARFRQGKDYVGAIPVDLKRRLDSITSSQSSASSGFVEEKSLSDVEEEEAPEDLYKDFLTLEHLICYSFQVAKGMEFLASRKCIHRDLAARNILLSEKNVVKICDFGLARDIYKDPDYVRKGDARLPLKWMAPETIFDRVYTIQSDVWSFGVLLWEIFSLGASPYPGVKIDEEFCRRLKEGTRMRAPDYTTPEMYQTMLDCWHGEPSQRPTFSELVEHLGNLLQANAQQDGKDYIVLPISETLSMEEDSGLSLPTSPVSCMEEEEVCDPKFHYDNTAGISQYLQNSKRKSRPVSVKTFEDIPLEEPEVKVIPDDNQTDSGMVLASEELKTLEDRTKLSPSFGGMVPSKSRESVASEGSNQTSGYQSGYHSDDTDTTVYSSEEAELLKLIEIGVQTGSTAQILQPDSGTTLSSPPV
Chain of Serine/threonine-protein kinase PAK 5 (Homo sapiens) (Q9P286 whole entry, looked up): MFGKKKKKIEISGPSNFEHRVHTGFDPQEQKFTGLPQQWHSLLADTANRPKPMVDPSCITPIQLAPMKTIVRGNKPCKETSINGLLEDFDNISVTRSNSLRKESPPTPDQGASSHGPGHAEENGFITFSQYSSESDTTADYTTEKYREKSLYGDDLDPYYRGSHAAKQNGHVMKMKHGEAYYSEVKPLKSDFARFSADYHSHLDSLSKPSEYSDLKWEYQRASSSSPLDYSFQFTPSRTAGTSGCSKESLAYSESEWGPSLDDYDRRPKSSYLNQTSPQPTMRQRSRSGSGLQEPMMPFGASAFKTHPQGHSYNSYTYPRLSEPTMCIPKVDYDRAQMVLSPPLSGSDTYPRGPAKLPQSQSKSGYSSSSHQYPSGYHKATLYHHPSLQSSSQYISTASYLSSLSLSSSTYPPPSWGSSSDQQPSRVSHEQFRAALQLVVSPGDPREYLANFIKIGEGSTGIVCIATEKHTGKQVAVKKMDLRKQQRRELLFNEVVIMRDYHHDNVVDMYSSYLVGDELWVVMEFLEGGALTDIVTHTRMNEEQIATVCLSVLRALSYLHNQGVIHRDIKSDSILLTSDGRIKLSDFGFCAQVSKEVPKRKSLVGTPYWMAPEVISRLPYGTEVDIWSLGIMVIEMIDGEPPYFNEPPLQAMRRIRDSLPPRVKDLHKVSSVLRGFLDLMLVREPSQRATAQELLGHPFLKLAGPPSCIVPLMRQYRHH

CN(C)C(=O)Cn1cc(-c2nc(C3(c4ccc(-c5cnc(N)nc5)cc4)CC3)no2)cn1 [BI 0153]
inactive: [1] 67% | [2] 97%

CN(C)C(=O)Cn1cc(-c2nc([C@@](C)(c3ccc(-c4cnc(N)nc4)cc3)C3CC3)no2)cn1 [BI 665915]
inactive: [3] 111% | [4] 96% | [5] 118% | [6] 91% | [7] 98% | [8] 97% | [9] 109% | [10] 103% | [11] 100% | [12] 82% | [13] 99% | [14] 79% | [15] 102% | [16] 95% | [17] 102% | [18] 97.5% | [19] 100% | [20] 96% | [21] 99.5% | [22] 90.5% | [23] 96% | [24] 97% | [25] 102% | [26] 72% | [27] 100%
